From patent US9617261B2, “Substituted pyridinone compounds as MEK inhibitors” (The Asan Foundation, priority 2013, dated 2017)

Assays:
[1] = tested on: M14 cell line (Melanoma); assay: Cell viability assay (CellTiter-Glo), M14; conditions: Homo sapiens; M14, 72 hours; read-out: IC50 Cell-based assay (M14)
Protocol: (§1) The CellTiter-Glo® assay was purchased from Promega. All the reagents and plates for cell culture were purchased Invitrogen Life Technology and Nunc, respectively.
(§2) To investigate whether a compound is able to inhibit the activity of MEK in cells, a mechanism-based assay using COLO205 cell line (Colon cancer) and M14 cell line (Melanoma) were developed. COLO205 cells and M14 cells were cultured in a tissue culture flask to 80% confluence in RPMI1640 plus 10% fetal bovine serum. Cells were collected and plated onto 96 well culture plates at 2×10^2 cells/well. Plates were incubated overnight at 37° C. in a 5% CO2 incubator to allow cells to adhere. Various concentrations of MEK inhibitors were added to the plates and incubated at 37° C. for 72 hours. After 72 hours, 20 μl of CellTiter-Glo® reagent was added to each well. Mix by orbital shaking for 2 min, then incubates at room temperature for 15 min. Cell lysate were transferred into a 96 well white plate (Thermo). Plates were read out by EnVision Multilabel Plate Reader. The data were analyzed using GraphPad Prism5.

[2] = target: Mek1 (Homo sapiens (Human), UniProt Q02750); assay: Mek1 kinase assay (LANCE); type: biochemical; conditions: Mek1 0.5 nM, 50 μM ATP, 90 min at 23° C.; read-out: IC50 Enzymatic assay
Mek1, sequence (Q02750 whole entry, species assumed): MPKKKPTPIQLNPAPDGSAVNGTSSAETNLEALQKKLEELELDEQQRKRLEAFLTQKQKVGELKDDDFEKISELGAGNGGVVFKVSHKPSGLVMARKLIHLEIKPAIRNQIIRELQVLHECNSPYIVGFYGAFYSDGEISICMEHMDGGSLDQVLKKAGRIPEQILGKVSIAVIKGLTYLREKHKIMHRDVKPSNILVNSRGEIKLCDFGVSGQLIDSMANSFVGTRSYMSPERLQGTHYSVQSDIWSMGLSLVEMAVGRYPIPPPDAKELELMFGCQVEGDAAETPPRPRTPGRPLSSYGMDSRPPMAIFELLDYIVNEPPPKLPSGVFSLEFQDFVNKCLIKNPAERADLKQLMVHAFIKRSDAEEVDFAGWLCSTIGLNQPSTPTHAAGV
Text: The LANCE Ultra assay kit was purchased from PerkinElmer. The ULight™-MBP peptide, Europium labeled Antibody and LANCE Detection buffer were purchased from PerkinElmer. The APT and dimethylsulfoxide were purchased from Sigma-Aldrich. The 5× Kinase buffer were purchased from Invitrogen.
A Mek1 kinase assay (LANCE, PerkinElmer) was developed for supporting compound profiling and lead optimization. […] Then the phosphorylated Erk1 was able to phosphorylate ULight™-MBP peptide (PerkinElmer). The phosphorylated peptide was detected by Europium-anti-phospho-MBP (PerkinElmer). […] After quenching the reaction with […], 2 nM Europium-anti-phospho-MBP was added to the reaction mixture and incubated for 60 min, followed by a detection using EnVision Multilabel Plate Reader (PerkinElmer). The IC50 values were derived through a curve fitting using GraphPad Prism5.

[3] = tested on: COLO205 cell line (Colon cancer); assay: Cell viability assay (CellTiter-Glo), COLO205; conditions: Homo sapiens, COLO 205; COLO205, 72 hours; read-out: IC50 Cell-based assay (COLO205)
Protocol: as §1, §2

[4] = Example 3 toxicity study by oral administration for 8 days; type: in vivo, Sprague-Dawley rats; conditions: for Body weight: escalating 5-320 mg/kg over 8 days
Protocol: To evaluate the potential toxicity, test article, Example 3, was administered orally for 8 days to Sprague-Dawley rats.
Male and female Sprague-Dawley rats, 6 weeks of age at onset of the study, were assigned to 2 experimental groups as follow: (1) 2 male rats treated 5, 5, 10, 20, 40, 80, 160, 320 mg/kg each day with doses escalating for 8 days (2) 2 female rats treated 5, 5, 10, 20, 40, 80, 160, 320 mg/kg each day with doses escalating for 8 days. Each article was in vehicle (Captisol).
Body weight was measured on a daily basis to determine toxicity. All groups were sacrificed at 9th day.

| IC50 [1] | IC50 [2] | IC50 [3] | Structure (SMILES) | Body weight ([4]; female rats) | Mortality ([4]; male and female rats, escalating 5, 5, 10, 20, 40, 80, 160, 320 mg/kg over 8 days) | Body weight ([4]; male rats) |
| --- | --- | --- | --- | --- | --- | --- |
| < 500 nM | < 1000 nM | < 500 nM | Cn1c(Nc2ccc(I)cc2F)c(C(=O)NOCCO)c2ncccc2c1=O [Example 1, 7-(2-fluoro-4-iodophenylamino)-N-(2-hydroxyethoxy)-6-methyl-5-oxo-5,6-dihydro-1,6-naphthyridine-8-carboxamide] |  |  |  |
| < 500 nM | < 5000 nM | < 50 nM | Cn1c(Nc2ccc(I)cc2F)c(C(N)=O)c2c(c1=O)CCC2 [Example 4, 3-(2-fluoro-4-iodophenylamino)-2-methyl-1-oxo-2,5,6,7-tetrahydro-1H-cyclopenta[c]pyridine-4-carboxamide] |  |  |  |
| < 50 nM | < 500 nM | < 5 nM | C[C@H](O)CONC(=O)c1c2c(c(=O)n(C)c1Nc1ccc(I)cc1F)CCC2 [Example 5, (S)-3-(2-fluoro-4-iodophenylamino)-N-(2-hydroxypropoxy)-2-methyl-1-oxo-2,5,6,7-tetrahydro-1H-cyclopenta[c]pyridine-4-carboxamide] |  |  |  |
| < 500 nM | < 5000 nM | < 5 nM | Cn1c(Nc2ccc(I)cc2F)c(C(=O)NOCC(C)(C)O)c2c(c1=O)CCC2 [Example 7, 3-(2-fluoro-4-iodophenylamino)-N-(2-hydroxy-2-methylpropoxy)-2-methyl-1-oxo-2,5,6,7-tetrahydro-1H-cyclopenta[c]pyridine-4-carboxamide] |  |  |  |
| < 1000 nM | < 5000 nM | < 50 nM | Cn1c(Nc2ccc(I)cc2F)c(-c2nnc(N)o2)c2c(c1=O)CCC2 [Example 9, 4-(5-amino-1,3,4-oxadiazol-2-yl)-3-(2-fluoro-4-iodophenylamino)-2-methyl-2,5,6,7-tetrahydro-1H-cyclopenta[c]pyridin-1-one] |  |  |  |
| < 100 nM |  | < 50 nM | Cn1c(Nc2ccc(I)cc2F)c(C(=O)NOCCO)c2c(c1=O)CC(C)(C)C2 [Example 10, 3-(2-fluoro-4-iodophenylamino)-N-(2-hydroxyethoxy)-2,6,6-trimethyl-1-oxo-2,5,6,7-tetrahydro-1H-cyclopenta[c]pyridine-4-carboxamide] |  |  |  |

The next lines start with the molecule.

| Structure (SMILES) | IC50 [1] | IC50 [2] | IC50 [3] | Body weight ([4]; female rats) | Mortality ([4]; male and female rats, escalating 5, 5, 10, 20, 40, 80, 160, 320 mg/kg over 8 days) | Body weight ([4]; male rats) |
| --- | --- | --- | --- | --- | --- | --- |
| Cn1c(Nc2ccc(I)cc2F)c(-c2nnc(N)o2)c2ncccc2c1=O [Example 2, 8-(5-amino-1,3,4-oxadiazol-2-yl)-7-(2-fluoro-4-iodophenylamino)-6-methyl-1,6-naphthyridin-5(6H)-one] | < 50000 nM | < 10000 nM | < 50000 nM |  |  |  |
| Cn1c(Nc2ccc(I)cc2F)c(C(=O)NOCCO)c2c(c1=O)CCC2 [Example 3, 3-(2-fluoro-4-iodophenylamino)-N-(2-hydroxyethoxy)-2-methyl-1-oxo-2,5,6,7-tetrahydro-1H-cyclopenta[c]pyridine-4-carboxamide] | < 10 nM | < 500 nM | < 5 nM | decreased after 6 days | No mortality was observed | decreased at day 6 and day 8 |
| C[C@@H](O)CONC(=O)c1c2c(c(=O)n(C)c1Nc1ccc(I)cc1F)CCC2 [Example 6, (R)-3-(2-fluoro-4-iodophenylamino)-N-(2-hydroxypropoxy)-2-methyl-1-oxo-2,5,6,7-tetrahydro-1H-cyclopenta[c]pyridine-4-carboxamide] | < 100 nM | < 1000 nM | < 10 nM |  |  |  |
| Cn1c(Nc2ccc(I)cc2F)c(C(=O)NOCC(O)CO)c2c(c1=O)CCC2 (centres unmarked) [Example 8, N-(2,3-dihydroxypropoxy)-3-(2-fluoro-4-iodophenylamino)-2-methyl-1-oxo-2,5,6,7-tetrahydro-1H-cyclopenta[c]pyridine-4-carboxamide] | < 50 nM | < 500 nM | < 5 nM |  |  |  |
| Cn1c(Nc2ccc(I)cc2Cl)c(C(=O)NOCCO)c2c(c1=O)CCC2 [Example 11, 3-(2-chloro-4-iodophenylamino)-N-(2-hydroxyethoxy)-2-methyl-1-oxo-2,5,6,7-tetra hydro-1H-cyclopenta[c]pyridine-4-carboxamide] | < 50 nM | < 500 nM | < 5 nM |  |  |  |
